From BindingDB's records for patent US9701669 (Merck Sharp & Dohme Corp, 2017)

Biological target: T1, Proteinase-activated receptor 1 (Homo sapiens, UniProt P25116)
T1 sequence (P25116 whole entry): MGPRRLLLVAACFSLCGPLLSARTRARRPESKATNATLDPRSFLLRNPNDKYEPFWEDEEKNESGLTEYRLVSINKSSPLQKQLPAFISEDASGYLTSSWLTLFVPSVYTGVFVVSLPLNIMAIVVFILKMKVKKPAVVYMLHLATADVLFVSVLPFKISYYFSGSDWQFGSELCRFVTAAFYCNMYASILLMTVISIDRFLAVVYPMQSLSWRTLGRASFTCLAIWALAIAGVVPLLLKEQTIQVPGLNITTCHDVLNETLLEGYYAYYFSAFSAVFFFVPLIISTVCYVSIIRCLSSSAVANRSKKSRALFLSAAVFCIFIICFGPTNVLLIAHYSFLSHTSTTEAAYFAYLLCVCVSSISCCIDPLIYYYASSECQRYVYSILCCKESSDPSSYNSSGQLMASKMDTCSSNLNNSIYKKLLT
Assay: PAR-1 FLIPR Assay
Protocol: Media was then removed from the cells, incubated with 33 ul of Calcium-5 dye in assay buffer (Hank's buffer containing 20 mM HEPES, 0.04% Chaps and 2.5 mM Probenecid) for 60 minutes at 37° C. 2 uL of varying concentrations of compound in 40% DMSO in assay buffer (final DMSO concentration is 2.3%) were then added to the cells and incubated at 25° C. for 30 minutes. […] The range of peptide was from 1.5-3 μM. The final volume was 40 uL/well, with 2% DMSO. […] The data were analyzed by taking the peak signal over a portion of the range of the 60 scans and dividing this signal by the minimum signal for that same range.

IC50: 6.92 nM
Compound: Cc1nc(/C=C/[C@@H]2[C@@H]3[C@@H](C)OC(=O)[C@]3(C(N)=O)CC(F)(F)[C@H]2C)ccc1-c1ccccc1C#N [US9701669, 4]
